{"source": "paper PMC4129416", "about": "“YLT192, a Novel, Orally Active Bioavailable Inhibitor of VEGFR2 Signaling with Potent Antiangiogenic Activity and Antitumor Efficacy in Preclinical Models” (Scientific Reports, 2014)", "key": {"[1]": {"tested_on": "alginate beads containing CT26 tumor cells", "assay": "Alginate-encapsulated tumor cell assay", "assay_type": "in vivo, mice", "details": "100 mg/kg oral once daily, 14 days, vs vehicle", "protocol": "Figure 3 YLT192 inhibited angiogenesis in vivo. (A) Fluorescent images of 30 hpf zebrafish treated with vehicle or concentrations of YLT192. ISV growth was inhibited by YLT192. One representative experiment of three is shown. Data are means ± SEM (n = 10 per group), *P < 0.05, **P < 0.01. Scale bars represent 100 μm. […] Frozen sections of HCT116 tumors were tested by immunohistochemistry analysis with anti-CD31 antibody. Representative images of the tumor vasculature from vehicle and YLT192 treated mice were shown. The fields were averaged in each tumor, and the averages for each animal were used to give the final mean ± SD (n = 6 mice per group). *P < 0.05, **P < 0.01. Scale bars represent 100 μm. […] Alginate beads containing 5 × 10^4 CT26 cells were implanted s.c. into the backs of mice. Mice were then orally treated with YLT192 or vehicle once daily. Beads were surgically removed 14 days later and FITC-dextran was quantified. […] Data are means ± SD (n = 6 mice per group), *P < 0.05, **P < 0.01. Scale bars represent 500 μm.\nTo determine whether YLT192 could inhibit angiogenesis induced by tumor cells in vivo, we did the alginate-encapsulated tumor cell assay as described previously. […] The content of FITC-dextran in the beads was quantified as described previously."}, "HUVEC [2]": {"tested_on": "HUVEC", "assay": "Wound healing migration assay", "assay_type": "cell-based, human", "details": "24 hours", "source_text": "Cell migration is essential for ECs in angiogenesis and for cancer cells in tumor growth and metastasis. […] Cell invasion is essential for EC in angiogenesis, so we performed transwell assays to evaluate the ability of HUVEC to pass through the Matrigel and membrane barriers of the transwell in the presence of various concentrations of YLT192 or vehicle.\nFigure 2 Effects of YLT192 on HUVECs proliferation, migration, invasion and tube formation. […] Cells were wounded by the pipette and then treated with various concentrations of compounds for 24 hours. Migrated cells were quantified by manual counting (50×). […] The bottom chambers of the transwells were filled with 600 μL EGM2 containing various growth factors while the top chambers were seeded with 4 × 10^4 HUVECs in EBM2 and treated with different concentrations of compounds for 24 hours. Cells invaded through the membrane were stained and quantified (100×). […] HUVECs were seeded on Matrigel layer and treated with different concentrations of compounds. HUVECs tube formation was assessed 6 hours later (50×). One representative experiment of three is shown. For (A), (B) and (C), data represent the mean ± SEM of three different experiments. Each experiment was performed in duplicate.*P < 0.05, **P < 0.01. (D) YLT192 inhibited VEGF-induced phosphorylation of VEGFR2 and its downstream signal regulator p44/42 MAPK, STAT3 and AKT in HUVECs. One representative Western blot of three is presented. Each has the expression of β-actin as internal control. The full size blots were shown in the Supplemental Figure S5 online. (E) Cellular thermal shift assay showing VEGFR2 target engagement by YLT192 in intact HUVECs. One representative Western blot of two is presented. The full size blots were shown in the Supplemental Figure S6 online. […]\nHUVECs were allowed to grow into full confluence in 24-well plates and then wounded by scratching with pipette tips and washed with PBS. […] Images were taken using a ZEISS digital microscope and invading cells were counted by manual counting. […]"}, "VEGFR2": {"target": "VEGFR2 (Homo sapiens, UniProt P35968)", "sequence (P35968 20-1356)": "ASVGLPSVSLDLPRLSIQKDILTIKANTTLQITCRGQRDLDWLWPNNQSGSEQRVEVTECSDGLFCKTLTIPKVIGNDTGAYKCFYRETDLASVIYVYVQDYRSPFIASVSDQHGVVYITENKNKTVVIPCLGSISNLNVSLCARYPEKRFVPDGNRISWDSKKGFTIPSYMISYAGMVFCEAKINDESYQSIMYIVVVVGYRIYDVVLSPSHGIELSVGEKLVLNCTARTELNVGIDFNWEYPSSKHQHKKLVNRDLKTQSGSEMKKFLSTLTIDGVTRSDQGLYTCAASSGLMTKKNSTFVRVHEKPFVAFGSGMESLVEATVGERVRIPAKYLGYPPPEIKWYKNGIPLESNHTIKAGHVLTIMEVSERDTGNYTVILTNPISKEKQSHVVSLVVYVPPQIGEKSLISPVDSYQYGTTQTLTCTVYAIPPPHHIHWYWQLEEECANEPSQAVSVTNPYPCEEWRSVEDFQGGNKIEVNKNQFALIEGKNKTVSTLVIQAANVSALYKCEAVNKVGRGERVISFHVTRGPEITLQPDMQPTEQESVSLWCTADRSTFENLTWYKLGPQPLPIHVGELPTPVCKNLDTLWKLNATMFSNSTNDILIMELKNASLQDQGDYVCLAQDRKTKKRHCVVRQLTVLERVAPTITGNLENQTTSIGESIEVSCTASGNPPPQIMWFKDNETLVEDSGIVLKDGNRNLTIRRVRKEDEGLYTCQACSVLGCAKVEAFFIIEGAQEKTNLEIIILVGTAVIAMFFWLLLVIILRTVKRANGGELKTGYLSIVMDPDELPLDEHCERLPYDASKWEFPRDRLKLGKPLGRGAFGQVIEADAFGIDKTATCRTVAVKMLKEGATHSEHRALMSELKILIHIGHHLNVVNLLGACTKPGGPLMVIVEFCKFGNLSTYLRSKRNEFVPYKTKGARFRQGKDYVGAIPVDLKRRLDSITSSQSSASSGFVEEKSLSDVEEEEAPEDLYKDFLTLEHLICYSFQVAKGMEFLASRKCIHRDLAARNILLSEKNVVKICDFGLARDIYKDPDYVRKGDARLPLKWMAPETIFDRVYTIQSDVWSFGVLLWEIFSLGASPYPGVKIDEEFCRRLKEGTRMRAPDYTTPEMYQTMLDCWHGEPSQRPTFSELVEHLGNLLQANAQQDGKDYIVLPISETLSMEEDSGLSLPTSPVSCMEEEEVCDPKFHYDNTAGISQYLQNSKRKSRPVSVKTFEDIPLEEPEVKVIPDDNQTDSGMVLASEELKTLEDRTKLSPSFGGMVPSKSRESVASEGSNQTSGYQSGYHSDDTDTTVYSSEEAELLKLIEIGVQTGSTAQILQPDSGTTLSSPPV", "assay": "Radiometric kinase assay (Millipore Kinase Profile Service)", "assay_type": "biochemical", "parameters": "purchased Millipore (Kinase Profile Service, UK)", "details": "means ± SD, two independent experiments, read-out: inhibition rate at 1 μM (%)", "protocol": "YLT192 was designed and synthesized in the State Key Laboratory of Biotherapy, Sichuan University (Sichuan, China). Its structural formula and synthesis route was shown in Fig. 1A and Supplementary Figure S1, respectively. The kinase inhibitory activity of YLT192 was measured by the use of radiometric assays provided by Kinase Profile Service (Millipore, UK). The effects of YLT192 on kinase activity were detected using the scintillation proximity assay method at an enzymatic level. […] In addition, the inhibitory activity of YLT192 was examined against platelet-derived growth factor receptor (PDGFR)-related kinases because of their structural similarity to the VEGFR2. […] Moreover, excellent selectivity for VEGFR2 was evident compared with a range of unrelated tyrosine and serine/threonine kinases, including fibroblast growth factor receptor 3, polo-like kinase 1, aurora-A, Axl, MET, protein kinase A, c-RAF etc."}, "HUVEC [3]": {"tested_on": "HUVEC", "assay": "VEGF165-stimulated HUVEC growth, MTT assay", "assay_type": "cell-based", "details": "Homo sapiens, induced by VEGF165 (50 ng/mL), read-out: IC50, HUVEC proliferation", "source_text": "The inhibition effect of YLT192 on VEGF165-stimulated HUVEC growth was examined using MTT assay."}, "[4]": {"details": "mouse, in vivo", "protocol": "All the HCT116 model mice were sacrificed after 24 days of treatment.\nDuring the treatment of human colorectal carcinoma HCT116 xenograft on nude mice, they were also observed every day to investigate the side effects and toxicities after YLT192's longer time administration. Finally, serum biochemistry, hematological analysis, organ coefficients and histological examinations of heart, liver, spleen, lung, and kidney were carried out after dissection. Serum chemistry and hematological analysis was carried out.\nin normal tissues. After the treatment of HCT116 xenograft, heart, liver, spleen, lung\nand kidney of the mice were isolated and stained with H&E (n=6 mice per group).\nScale bars represent 50μm.\n(1 picture or pasted object on this page, not shown here)"}}, "data": [{"smiles": "CNC(=O)c1cc(Oc2ccc(NC(=O)c3cccc(OC)c3)cc2)ccn1", "note": "[YLT192]", "values": [{"measurement": "reduction of accumulation of FITC-dextran", "setting": "[1]", "result": 66, "unit": "%"}, {"measurement": "migration of HUVEC", "setting": "HUVEC [2]; 2.5 μM, wound healing", "result": "strongly inhibited"}, {"measurement": "HUVECs migration in wound healing assay", "setting": "HUVEC [2]; various concentrations", "result": "inhibited HUVECs migration"}, {"measurement": "inhibition at 1 µM", "setting": "VEGFR2", "result": "93 ± 3", "unit": "%"}, {"measurement": "IC50", "setting": "HUVEC [3]", "result": 2.3, "unit": "µM"}, {"measurement": "adverse effects, such as diarrhea or toxic death", "setting": "[4]", "result": "did not observed adverse effects"}, {"measurement": "microscopic examination of the heart, liver, spleen, lung, and kidney", "setting": "[4]", "result": "no pathological changes"}]}]}
